biological target: Acetylcholinesterase (Homo sapiens, UniProt P22303); assay: Inhibition of human AChE by spectrophotometry
Sequence (P22303 whole entry): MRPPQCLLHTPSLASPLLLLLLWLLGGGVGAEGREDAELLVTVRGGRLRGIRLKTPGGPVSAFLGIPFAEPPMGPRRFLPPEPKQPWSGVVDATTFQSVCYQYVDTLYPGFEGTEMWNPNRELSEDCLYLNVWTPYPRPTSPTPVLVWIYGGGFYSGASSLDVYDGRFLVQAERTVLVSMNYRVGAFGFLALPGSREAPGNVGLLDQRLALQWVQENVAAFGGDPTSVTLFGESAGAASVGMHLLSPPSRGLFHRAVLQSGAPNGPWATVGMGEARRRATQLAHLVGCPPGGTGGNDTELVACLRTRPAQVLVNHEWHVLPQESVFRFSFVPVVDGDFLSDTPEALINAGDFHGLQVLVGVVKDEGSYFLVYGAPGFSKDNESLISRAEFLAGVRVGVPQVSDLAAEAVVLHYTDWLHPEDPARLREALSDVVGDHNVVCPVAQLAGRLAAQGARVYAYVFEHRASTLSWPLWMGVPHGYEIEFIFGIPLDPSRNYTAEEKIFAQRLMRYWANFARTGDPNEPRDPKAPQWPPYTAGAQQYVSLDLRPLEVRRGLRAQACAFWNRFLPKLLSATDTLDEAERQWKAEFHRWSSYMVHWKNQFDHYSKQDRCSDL

`CC[C@H]1[C@H](C[C@H](C)C(=O)OC)O[C@]23CC[C@@H]([C@@H]4C[C@H](C)C(=O)O4)N2CCCC[C@H]13` was tested. Which IC50 did it give?
The IC50 was 71.5 µM.

How did the IC50 turn out when `CC[C@H]1[C@H](C[C@H](C)C(=O)OC)O[C@]23CC[C@@H]([C@@H]4C[C@H](C)C(=O)O4)N2CCCC[C@]13O` was run?
Its IC50 is over 100 µM.

For `CC[C@H]1[C@H]2OC(=O)[C@](C)(O)[C@H]2[C@]23CC[C@@H]([C@@H]4C[C@@H](C)C(=O)O4)N2CCCC[C@@H]13`, which IC50 is on record?
Its IC50 is 9.1 µM.

For `CC[C@@H]1[C@H]2OC(=O)[C@](C)(O)[C@H]2[C@]23CC[C@@H]([C@@H]4C[C@@H](C)C(=O)O4)N2CCCC[C@@H]13`, which IC50 is on record?
The IC50 was over 100 µM.

For `CC[C@@H]1[C@H]2OC(=O)[C@@](C)(O)[C@H]2[C@]23CC[C@@H]([C@@H]4C[C@H](C)C(=O)O4)N2CCCC[C@H]13`, which IC50 is on record?
Its IC50 is 68.8 µM.

How did the IC50 turn out when `CC[C@H]1[C@@H]2OC(=O)[C@@](C)(O)[C@@H]2[C@@]23CC[C@@H]([C@@H]4C[C@H](C)C(=O)O4)N2CCCC[C@H]13` was run?
The IC50 was 17.1 µM.

For `CC[C@H]1[C@H]2OC(=O)[C@@](C)(O)[C@H]2[C@]23CC[C@@H]([C@@H]4C[C@H](C)C(=O)O4)N2CCCC[C@H]13`, which IC50 is on record?
The IC50 was over 100 µM.

— ChEMBL document CHEMBL3232805, “Alkaloids from the roots of Stichoneuron caudatum and their acetylcholinesterase inhibitory activities” (J Nat Prod, 2014)
